From ChEMBL document CHEMBL4257451, “Synergism of fused bicyclic 2-aminothiazolyl compounds with polymyxin B against Klebsiella pneumoniae” (Medchemcomm, 2017)

Tests used:
Klebsiella pneumoniae [1] = experiment: Growth inhibition of Klebsiella pneumoniae SIPI-KPN-1712 by broth microdilution method; type: organism-based; settings: in vitro
Klebsiella pneumoniae [2] = experiment: Synergistic antibacterial activity against Klebsiella pneumoniae SIPI-KPN-1712 assessed as polymixin B MIC at 4 ug/ml by broth microdilution method (reference value: 32 ug/ml); type: functional
Klebsiella pneumoniae [3] = experiment: Synergistic antibacterial activity against Klebsiella pneumoniae SIPI-KPN-1712 assessed as fractional Inhibitory concentration index in presence of polymixin B at 2 ug/ml by broth microdilution method; type: functional

COC1CCCc2nc(Nc3ccccc3Cl)sc21 (stereo unspecified)
MIC (Klebsiella pneumoniae [1]): > 128 µg/mL | MIC (Klebsiella pneumoniae [2]): 32 µg/mL | fractional inhibitory concentration index (FICI) (Klebsiella pneumoniae [3]): 1.03

CC(C)OC1CCCc2nc(Nc3ccc(Cl)cc3)sc21 (stereo unspecified)
MIC (Klebsiella pneumoniae [1]): > 128 µg/mL | MIC (Klebsiella pneumoniae [2]): 1 µg/mL | fractional inhibitory concentration index (FICI) (Klebsiella pneumoniae [3]): 0.06

OC1CCCc2nc(Nc3ccc4ccccc4c3)sc21 (stereo unspecified)
MIC (Klebsiella pneumoniae [1]): > 128 µg/mL | MIC (Klebsiella pneumoniae [2]): 16 µg/mL | fractional inhibitory concentration index (FICI) (Klebsiella pneumoniae [3]): 0.53

COC1CCCc2nc(Nc3ccc(C)cc3)sc21 (stereo unspecified)
MIC (Klebsiella pneumoniae [1]): > 128 µg/mL | MIC (Klebsiella pneumoniae [2]): 16 µg/mL | fractional inhibitory concentration index (FICI) (Klebsiella pneumoniae [3]): 0.53

COC1CCCc2nc(Nc3ccc(C(C)=O)cc3)sc21 (stereo unspecified)
MIC (Klebsiella pneumoniae [1]): > 128 µg/mL | MIC (Klebsiella pneumoniae [2]): 16 µg/mL | fractional inhibitory concentration index (FICI) (Klebsiella pneumoniae [3]): 0.53

COC1CCCc2nc(Nc3ccc(C(F)(F)F)cc3)sc21 (stereo unspecified)
MIC (Klebsiella pneumoniae [1]): > 128 µg/mL | MIC (Klebsiella pneumoniae [2]): 8 µg/mL | fractional inhibitory concentration index (FICI) (Klebsiella pneumoniae [3]): 0.28

Clc1ccc(Nc2nc3ccc(Cl)cc3s2)cc1
MIC (Klebsiella pneumoniae [1]): > 128 µg/mL | MIC (Klebsiella pneumoniae [2]): 32 µg/mL | fractional inhibitory concentration index (FICI) (Klebsiella pneumoniae [3]): 1.03

COC1CCCc2nc(Nc3ccc(Cl)cc3)sc21 (stereo unspecified)
MIC (Klebsiella pneumoniae [1]): > 128 µg/mL | MIC (Klebsiella pneumoniae [2]): 1 µg/mL | fractional inhibitory concentration index (FICI) (Klebsiella pneumoniae [3]): 0.06

CCOC1CCCc2nc(Nc3ccc(F)cc3)sc21 (stereo unspecified)
MIC (Klebsiella pneumoniae [1]): > 128 µg/mL | MIC (Klebsiella pneumoniae [2]): 16 µg/mL | fractional inhibitory concentration index (FICI) (Klebsiella pneumoniae [3]): 0.53

COC1CCCc2nc(Nc3ccccc3C)sc21 (stereo unspecified)
MIC (Klebsiella pneumoniae [1]): > 128 µg/mL | MIC (Klebsiella pneumoniae [2]): 32 µg/mL | fractional inhibitory concentration index (FICI) (Klebsiella pneumoniae [3]): 1.03

COC1CCCc2nc(Nc3ccc4ccccc4n3)sc21 (stereo unspecified)
MIC (Klebsiella pneumoniae [1]): > 128 µg/mL | MIC (Klebsiella pneumoniae [2]): 32 µg/mL | fractional inhibitory concentration index (FICI) (Klebsiella pneumoniae [3]): 1.03

COC1CCCc2nc(Nc3ccc(Oc4ccccc4C)cc3)sc21 (stereo unspecified)
MIC (Klebsiella pneumoniae [1]): > 128 µg/mL | MIC (Klebsiella pneumoniae [2]): 16 µg/mL | fractional inhibitory concentration index (FICI) (Klebsiella pneumoniae [3]): 0.53

Cc1ccc(Nc2nc3c(s2)C(OC(=O)n2ccnc2)CCC3)cc1 (stereo unspecified)
MIC (Klebsiella pneumoniae [1]): > 128 µg/mL | MIC (Klebsiella pneumoniae [2]): 32 µg/mL | fractional inhibitory concentration index (FICI) (Klebsiella pneumoniae [3]): 1.03

COC1CCCc2nc(Nc3ccc(I)cc3)sc21 (stereo unspecified)
MIC (Klebsiella pneumoniae [1]): > 128 µg/mL | MIC (Klebsiella pneumoniae [2]): 16 µg/mL | fractional inhibitory concentration index (FICI) (Klebsiella pneumoniae [3]): 0.53

COC1CCCc2nc(Nc3ccnc(Cl)c3)sc21 (stereo unspecified)
MIC (Klebsiella pneumoniae [1]): > 128 µg/mL | MIC (Klebsiella pneumoniae [2]): 4 µg/mL | fractional inhibitory concentration index (FICI) (Klebsiella pneumoniae [3]): 0.16

OC1CCCc2nc(Nc3ccc(F)cc3)sc21 (stereo unspecified)
MIC (Klebsiella pneumoniae [1]): > 128 µg/mL | MIC (Klebsiella pneumoniae [2]): 32 µg/mL | fractional inhibitory concentration index (FICI) (Klebsiella pneumoniae [3]): 1.03

COC1CCCc2nc(Nc3c(Cl)cccc3Cl)sc21 (stereo unspecified)
MIC (Klebsiella pneumoniae [1]): > 128 µg/mL | MIC (Klebsiella pneumoniae [2]): 1 µg/mL | fractional inhibitory concentration index (FICI) (Klebsiella pneumoniae [3]): 0.06

OC1CCCc2nc(Nc3ccc(Cl)cn3)sc21 (stereo unspecified)
MIC (Klebsiella pneumoniae [1]): > 128 µg/mL | MIC (Klebsiella pneumoniae [2]): 16 µg/mL | fractional inhibitory concentration index (FICI) (Klebsiella pneumoniae [3]): 0.53

CC(=O)c1ccc(Nc2nc3c(s2)C(O)CCC3)cc1 (stereo unspecified)
MIC (Klebsiella pneumoniae [1]): > 128 µg/mL | MIC (Klebsiella pneumoniae [2]): 16 µg/mL | fractional inhibitory concentration index (FICI) (Klebsiella pneumoniae [3]): 0.53

COC1CCCc2nc(Nc3ccc(NC(C)=O)cc3)sc21 (stereo unspecified)
MIC (Klebsiella pneumoniae [1]): > 128 µg/mL | MIC (Klebsiella pneumoniae [2]): 32 µg/mL | fractional inhibitory concentration index (FICI) (Klebsiella pneumoniae [3]): 1.03

CCCOC1CCCc2nc(Nc3ccc(F)cc3)sc21 (stereo unspecified)
MIC (Klebsiella pneumoniae [1]): > 128 µg/mL | MIC (Klebsiella pneumoniae [2]): 16 µg/mL | fractional inhibitory concentration index (FICI) (Klebsiella pneumoniae [3]): 0.53

CCOC1CCCc2nc(Nc3ccc(Cl)cc3)sc21 (stereo unspecified)
MIC (Klebsiella pneumoniae [1]): > 128 µg/mL | MIC (Klebsiella pneumoniae [2]): 1 µg/mL | fractional inhibitory concentration index (FICI) (Klebsiella pneumoniae [3]): 0.06

COC1CCCc2nc(NN3CCOCC3)sc21 (stereo unspecified)
MIC (Klebsiella pneumoniae [1]): > 128 µg/mL | MIC (Klebsiella pneumoniae [2]): 16 µg/mL | fractional inhibitory concentration index (FICI) (Klebsiella pneumoniae [3]): 0.53

COC1CCCc2nc(Nc3ccc(Oc4ccc(F)cc4)cc3)sc21 (stereo unspecified)
MIC (Klebsiella pneumoniae [1]): > 128 µg/mL | MIC (Klebsiella pneumoniae [2]): 32 µg/mL | fractional inhibitory concentration index (FICI) (Klebsiella pneumoniae [3]): 1.03

O=C(OC1CCCc2nc(Nc3ccccc3)sc21)n1ccnc1 (stereo unspecified)
MIC (Klebsiella pneumoniae [1]): > 128 µg/mL | MIC (Klebsiella pneumoniae [2]): 16 µg/mL | fractional inhibitory concentration index (FICI) (Klebsiella pneumoniae [3]): 0.53

COC1CCCc2nc(Nc3cccc(Cl)c3)sc21 (stereo unspecified)
MIC (Klebsiella pneumoniae [1]): > 128 µg/mL | MIC (Klebsiella pneumoniae [2]): 8 µg/mL | fractional inhibitory concentration index (FICI) (Klebsiella pneumoniae [3]): 0.28

Cc1ccc(Nc2nc3c(s2)C(O)CCC3)cc1 (stereo unspecified)
MIC (Klebsiella pneumoniae [1]): > 128 µg/mL | MIC (Klebsiella pneumoniae [2]): 32 µg/mL | fractional inhibitory concentration index (FICI) (Klebsiella pneumoniae [3]): 1.03

COC1CCCc2nc(Nc3ccc(O)cc3)sc21 (stereo unspecified)
MIC (Klebsiella pneumoniae [1]): > 128 µg/mL | MIC (Klebsiella pneumoniae [2]): 32 µg/mL | fractional inhibitory concentration index (FICI) (Klebsiella pneumoniae [3]): 1.03

COC1CCCc2nc(Nc3ccccc3)sc21 (stereo unspecified)
MIC (Klebsiella pneumoniae [1]): > 128 µg/mL | MIC (Klebsiella pneumoniae [2]): 32 µg/mL | fractional inhibitory concentration index (FICI) (Klebsiella pneumoniae [3]): 1.03

COC1CCCc2nc(Nc3ccc(Cl)cn3)sc21 (stereo unspecified)
MIC (Klebsiella pneumoniae [1]): > 128 µg/mL | MIC (Klebsiella pneumoniae [2]): 16 µg/mL | fractional inhibitory concentration index (FICI) (Klebsiella pneumoniae [3]): 0.53

COC1CCCc2nc(Nc3cccc(F)c3)sc21 (stereo unspecified)
MIC (Klebsiella pneumoniae [1]): > 128 µg/mL | MIC (Klebsiella pneumoniae [2]): 32 µg/mL | fractional inhibitory concentration index (FICI) (Klebsiella pneumoniae [3]): 1.03

CCCCOC1CCCc2nc(Nc3ccc(Cl)cc3)sc21 (stereo unspecified)
MIC (Klebsiella pneumoniae [1]): > 128 µg/mL | MIC (Klebsiella pneumoniae [2]): 16 µg/mL | fractional inhibitory concentration index (FICI) (Klebsiella pneumoniae [3]): 0.53
